From ChEMBL document CHEMBL5532643, “Design and synthesis of etrasimod derivatives as potent antibacterial agents against Gram-positive bacteria” (Eur J Med Chem, 2024)
Values after ≈ are worked out from the molar mass of the structure shown. Values joined by “and” are separate entries in the source; they are usually repeats but may differ in a detail not shown here. Identical values can stand only once. Active and inactive are the calls of the source. The calls are words filed in the database; no cut-off is given here.

How the values were obtained:
Enterococcus faecalis [1] = experiment: Antibacterial activity against Enterococcus faecalis ATCC 29212 assessed as reduction in bacterial growth incubated for 18 to 20 hrs by broth microdilution assay; assay type: functional; conditions: time 18-20 hrs
Staphylococcus aureus [2] = experiment: Antimicrobial activity against Staphylococcus aureus ATCC 25923 infected in Caenorhabditis elegans AU37 assessed as reduction in bacterial burden at 20 uM incubated for 18 hrs; assay type: functional; design: scale not given: the % may be the effect or the level left
[3] = test system: Staphylococcus epidermidis; experiment: Antibacterial activity against […] Staphylococcus epidermidis RP62A assessed as reduction in bacterial growth incubated for 18 to 20 hrs by broth microdilution assay; assay type: functional; conditions: time 18-20 hrs
Staphylococcus aureus [4] = experiment: Antibacterial activity against Staphylococcus aureus ATCC 43300 assessed as reduction in bacterial growth incubated for 18 to 20 hrs by broth microdilution assay; assay type: functional; conditions: time 18-20 hrs
Staphylococcus aureus [5] = experiment: Antibiofilm activity against Staphylococcus aureus ATCC 25923 assessed as inhibition of biofilm viability at 100 uM incubated for 18 to 20 hrs by resazurin staining based assay; assay type: functional; conditions: time 18-20 hrs
Enterococcus faecium = experiment: Antibacterial activity against vancomycin-resistant Enterococcus faecium ATCC 700221 assessed as reduction in bacterial growth incubated for 18 to 20 hrs by broth microdilution assay; assay type: functional; conditions: time 18-20 hrs
Staphylococcus aureus [6] = experiment: Antibacterial activity against Staphylococcus aureus ATCC 25923 assessed as reduction in bacterial growth incubated for 18 to 20 hrs by broth microdilution assay; assay type: functional; conditions: time 18-20 hrs
Staphylococcus aureus [7] = experiment: Antimicrobial activity against methicillin-resistant Staphylococcus aureus ATCC 43300 infected in Caenorhabditis elegans AU37 assessed as reduction in bacterial burden at 20 uM incubated for 18 hrs; assay type: functional; design: scale not given: the % may be the effect or the level left
Enterococcus faecalis [8] = experiment: Antibacterial activity against vancomycin-resistant Enterococcus faecalis ATCC 51575 assessed as reduction in bacterial growth incubated for 18 to 20 hrs by broth microdilution assay; assay type: functional; conditions: time 18-20 hrs
Staphylococcus aureus [9] = experiment: Antibacterial activity against […] Staphylococcus aureus ATCC 43300 assessed as reduction in bacterial growth incubated for 18 to 20 hrs by broth microdilution assay; assay type: functional; conditions: time 18-20 hrs
Cell membrane [10] = experiment: Induction of cell membrane permeability in Staphylococcus aureus ATCC 25923 assessed as increase in fluorescence intensity at 4 times MIC incubated for 30 mins by PI staining based analysis; assay type: cell membranes
Staphylococcus aureus [11] = experiment: Antibiofilm activity against Staphylococcus aureus ATCC 25923 assessed as inhibition of biofilm biomass at 100 uM incubated for 18 to 20 hrs by crystal violet staining based assay; assay type: functional; conditions: time 18-20 hrs
[12] = test system: Staphylococcus epidermidis; experiment: Antibacterial activity against Staphylococcus epidermidis RP62A assessed as reduction in bacterial growth incubated for 18 to 20 hrs by broth microdilution assay; assay type: functional; conditions: time 18-20 hrs
Staphylococcus aureus [13] = experiment: Drug resistance, ratio of MIC for Staphylococcus aureus ATCC 25923 after 20 days exposure to MIC for Staphylococcus aureus ATCC 25923 during first exposure; assay type: functional; conditions: time 20 day
Staphylococcus aureus [14] = experiment: Drug resistance, ratio of MIC for methicillin-resistant Staphylococcus aureus after 20 days exposure to MIC for methicillin-resistant Staphylococcus aureus during first exposure; assay type: functional; conditions: time 20 day
Pseudomonas aeruginosa = experiment: Antibacterial activity against Pseudomonas aeruginosa ATCC 15442 assessed as reduction in bacterial growth incubated for 18 to 20 hrs by broth microdilution assay; assay type: functional; conditions: time 18-20 hrs
Acinetobacter baumannii = experiment: Antibacterial activity against Acinetobacter baumannii NCTC 13423 assessed as reduction in bacterial growth incubated for 18 to 20 hrs by broth microdilution assay; assay type: functional; conditions: time 18-20 hrs
Staphylococcus aureus [15] = experiment: Antibacterial activity against Staphylococcus aureus ATCC 25923 assessed as inhibition of bacterial growth at 40 uM incubated for 18 to 24 hrs by broth microdilution assay relative to control; assay type: functional; conditions: time 18-24 hrs
Erythrocyte = experiment: Hemolytic activity in mouse RBC assessed as hemolysis at 62.5 uM incubated for 1 hr; assay type: toxicity, cell-based
Cell membrane [16] = experiment: Induction of cytoplasmic membrane depolarization in Staphylococcus aureus ATCC 25923 assessed as increase in fluorescence intensity at 4 times MIC measured for 30 mins by DiSC3(5) dye based fluorescence method; assay type: cell membranes
THP-1 = experiment: Cytotoxicity against human THP-1 cells assessed as reduction in cell viability at 50 uM incubated for 24 hrs by resazurin staining based analysis relative to control; assay type: toxicity; conditions: thp-1, 24 h
[17] = Dissociation constant, pKa of compound; assay type: physicochemical
[18] = Hemolytic activity in mouse RBC assessed as hemolysis at 250 uM incubated for 1 hr; assay type: toxicity, cell-based, Erythrocyte; conditions: mouse red blood cells (erythrocytes), read-out: Activity
[19] = Hemolytic activity in mouse RBC assessed as hemolysis at 125 uM incubated for 1 hr; assay type: toxicity, cell-based, Erythrocyte; conditions: mouse red blood cells (erythrocytes), read-out: Activity
[20] = Toxicity in Caenorhabditis elegans AU37 assessed as worms survival at 10 uM measured after 72 hrs
[21] = Cytotoxicity against human THP-1 cells assessed as reduction in cell viability incubated for 24 hrs by resazurin staining based analysis; assay type: toxicity
Staphylococcus aureus [22] = experiment: Antibiofilm activity against Staphylococcus aureus ATCC 25923 assessed as reduction in biofilm biomass at 100 uM incubated for 18 to 20 hrs by crystal violet staining based assay; assay type: functional; design: scale not given: the % may be the effect or the level left; conditions: time 18-20 hrs
Cell membrane [23] = experiment: Induction of cell membrane permeability in Staphylococcus aureus ATCC 25923 assessed as increase in fluorescence intensity incubated for 30 mins by PI staining based analysis; assay type: cell membranes

CN[C@H](CC(C)C)C(=O)N[C@H]1C(=O)N[C@@H](CC(N)=O)C(=O)N[C@H]2C(=O)N[C@H]3C(=O)N[C@H](C(=O)N[C@H](C(=O)O)c4cc(O)cc(O)c4-c4cc3ccc4O)[C@H](O)c3ccc(c(Cl)c3)Oc3cc2cc(c3O[C@@H]2O[C@H](CO)[C@@H](O)[C@H](O)[C@H]2O[C@H]2C[C@](C)(N)[C@H](O)[C@H](C)O2)Oc2ccc(cc2Cl)[C@H]1O [VANCOMYCIN]
MIC (Enterococcus faecalis [1]): 2.5 µM (≈ 3.62 µg/mL)
Activity (Staphylococcus aureus [2]): 72%
MIC [3]: 2.5 µM (≈ 3.62 µg/mL)
MIC (Staphylococcus aureus [4]): 1.25 µM (≈ 1.81 µg/mL)
inhibition at 100 µM (Staphylococcus aureus [5]): 50%
MIC (Enterococcus faecium): 40 µM (≈ 58 µg/mL)
MIC (Staphylococcus aureus [6]): 2.5 µM and 3.6 µg/mL
Activity (Staphylococcus aureus [7]): 61%
MIC (Enterococcus faecalis [8]): 40 µM (≈ 58 µg/mL)
MIC (Staphylococcus aureus [9]): 1.25 µM (≈ 1.81 µg/mL)
Activity (Cell membrane [10]): inactive
inhibition at 100 µM (Staphylococcus aureus [11]): 25%
MIC [12]: 2.5 µM (≈ 3.62 µg/mL)

O=C(O)c1cn(C2CC2)c2cc(N3CCNCC3)c(F)cc2c1=O [CIPROFLOXACIN]
MIC (Enterococcus faecalis [1]): 2.5 µM (≈ 0.828 µg/mL)
MIC [3]: 1.25 µM (≈ 0.414 µg/mL)
MIC (Staphylococcus aureus [4]): 2.5 µM (≈ 0.828 µg/mL)
Ratio (Staphylococcus aureus [13]): 80
MIC (Enterococcus faecium): 40 µM (≈ 13.3 µg/mL)
MIC (Enterococcus faecalis [8]): 2.5 µM (≈ 0.828 µg/mL)
Ratio (Staphylococcus aureus [14]): 170
MIC [12]: 0.625 µM (≈ 0.207 µg/mL)

O=C(O)CC1CCCc2c1[nH]c1ccc(OCc3ccc(C4CCCC4)c(C(F)(F)F)c3)cc21 (stereo not given)
MIC (Enterococcus faecalis [1]): 5 µM (≈ 2.36 µg/mL)
MIC [3]: 5 µM (≈ 2.36 µg/mL)
MIC (Staphylococcus aureus [4]): 5 µM (≈ 2.36 µg/mL)
inhibition at 100 µM (Staphylococcus aureus [5]): > 90%
MIC (Enterococcus faecium): 5 µM (≈ 2.36 µg/mL)
MIC (Staphylococcus aureus [6]): 5 µM and 2.4 µg/mL
MIC (Enterococcus faecalis [8]): 10 µM (≈ 4.72 µg/mL)
MIC (Pseudomonas aeruginosa): > 200 µM
MIC (Staphylococcus aureus [9]): 5 µM (≈ 2.36 µg/mL)
inhibition at 100 µM (Staphylococcus aureus [11]): > 90%
MIC (Acinetobacter baumannii): > 200 µM
MIC [12]: 10 µM (≈ 4.72 µg/mL)
inhibition at 40 µM (Staphylococcus aureus [15]): ≤ 90%

O=C(O)C[C@H]1CCc2c1[nH]c1ccc(OCc3ccc(C4CCCC4)c(C(F)(F)F)c3)cc21 [ETRASIMOD]
MIC (Enterococcus faecalis [1]): 5 µM (≈ 2.29 µg/mL)
Activity (Staphylococcus aureus [2]): >85%
MIC [3]: 5 µM (≈ 2.29 µg/mL)
MIC (Staphylococcus aureus [4]): 5 µM (≈ 2.29 µg/mL)
inhibition at 100 µM (Staphylococcus aureus [5]): 80%
MIC (Enterococcus faecium): 5 µM (≈ 2.29 µg/mL)
Activity (Erythrocyte): Non-Toxic
MIC (Staphylococcus aureus [6]): 5 µM and 2.3 µg/mL
Activity (Staphylococcus aureus [7]): 77%
MIC (Enterococcus faecalis [8]): 10 µM (≈ 4.57 µg/mL)
MIC (Pseudomonas aeruginosa): > 200 µM
MIC (Staphylococcus aureus [9]): 5 µM (≈ 2.29 µg/mL)
Activity (Cell membrane [16]): inactive
Activity (THP-1): 64%
inhibition at 100 µM (Staphylococcus aureus [11]): 20%
MIC (Acinetobacter baumannii): > 200 µM
pKa [17]: 4
hemolysis at 1 h, 250 µM [18]: 100%
hemolysis at 1 h, 125 µM [19]: 7%
MIC [12]: 10 µM (≈ 4.57 µg/mL)
Activity [20]: Non-Toxic
CC50 at 24 h [21]: 57.7 µM

O=C(O)CC1CCc2c1[nH]c1ccc(OCc3cnc(C4CCCC4)c(C(F)(F)F)c3)cc21 (stereo not given)
inhibition at 100 µM (Staphylococcus aureus [5]): > 90%
MIC (Staphylococcus aureus [6]): 20 µM and 9.2 µg/mL
inhibition at 100 µM (Staphylococcus aureus [11]): > 90%
Activity (Staphylococcus aureus [22]): 50%
inhibition at 40 µM (Staphylococcus aureus [15]): ≤ 90%

O=C(O)CC1CCc2c1[nH]c1ccc(OCc3ccc(C4CCCCC4)c(OC(F)(F)F)c3)cc21 (stereo not given)
MIC (Enterococcus faecalis [1]): 5 µM (≈ 2.44 µg/mL)
MIC [3]: 10 µM (≈ 4.88 µg/mL)
MIC (Staphylococcus aureus [4]): 5 µM (≈ 2.44 µg/mL)
inhibition at 100 µM (Staphylococcus aureus [5]): > 90%
MIC (Enterococcus faecium): 5 µM (≈ 2.44 µg/mL)
MIC (Staphylococcus aureus [6]): 5 µM and 2.4 µg/mL
MIC (Enterococcus faecalis [8]): 5 µM (≈ 2.44 µg/mL)
MIC (Pseudomonas aeruginosa): > 200 µM
MIC (Staphylococcus aureus [9]): 5 µM (≈ 2.44 µg/mL)
inhibition at 100 µM (Staphylococcus aureus [11]): > 90%
MIC (Acinetobacter baumannii): > 200 µM
MIC [12]: 10 µM (≈ 4.88 µg/mL)
inhibition at 40 µM (Staphylococcus aureus [15]): ≤ 90%

CC[C@H](C)[C@H](NC(=O)CN)C(=O)NCC(=O)N[C@@H](C)C(=O)N[C@H](C(=O)N[C@@H](CC(C)C)C(=O)N[C@@H](CCCCN)C(=O)N[C@H](C(=O)N[C@@H](CC(C)C)C(=O)N[C@H](C(=O)N[C@H](C(=O)NCC(=O)N[C@@H](CC(C)C)C(=O)N1CCC[C@H]1C(=O)N[C@@H](C)C(=O)N[C@@H](CC(C)C)C(=O)N[C@H](C(=O)N[C@@H](CO)C(=O)N[C@@H](Cc1c[nH]c2ccccc12)C(=O)N[C@H](C(=O)N[C@@H](CCCCN)C(=O)N[C@@H](CCCNC(=N)N)C(=O)N[C@@H](CCCCN)C(=O)N[C@@H](CCCNC(=N)N)C(=O)N[C@@H](CCC(N)=O)C(=O)N[C@@H](CCC(N)=O)C(N)=O)[C@@H](C)CC)[C@@H](C)CC)[C@@H](C)O)[C@@H](C)O)C(C)C)C(C)C
Activity (Cell membrane [23]): Active
